Experimental data as given in ChEMBL document CHEMBL4152312, “Identification of fused pyrimidines as interleukin 17 secretion inhibitors” (Eur J Med Chem, 2018).

Columns and labels:
[1] = molecular target: Phosphatidylinositol 4,5-bisphosphate 3-kinase catalytic subunit gamma isoform (Homo sapiens) (UniProt P48736); experiment: Inhibition of recombinant full length human His-tagged PI3K p110ggamma at 500 nM by Z-LYTE assay relative to control
[2] = molecular target: Tyrosine-protein kinase ABL1 (Homo sapiens) (UniProt P00519); experiment: Inhibition of recombinant human full length His-tagged ABL1 expressed in baculovirus expression system at 500 nM by Z-LYTE assay relative to control
[3] = molecular target: Receptor-type tyrosine-protein kinase FLT3 (Homo sapiens) (UniProt P36888); experiment: Inhibition of recombinant human His-tagged FLT3 cytoplasmic domain (564 to 958 residues) expressed in baculovirus expression system at 500 nM by Z-LYTE assay relative to control
[4] = molecular target: Serine/threonine-protein kinase PAK 2 (Homo sapiens) (UniProt Q13177); experiment: Inhibition of recombinant human full length GST-tagged PAK2 expressed in baculovirus expression system at 500 nM by Z-LYTE assay relative to control
[5] = molecular target: T1, Mitogen-activated protein kinase 12 (Homo sapiens) (UniProt P53778); experiment: Inhibition of recombinant human full length His-tagged p38-gamma expressed in baculovirus expression system at 500 nM by Z-LYTE assay relative to control
T1 sequence (whole entry): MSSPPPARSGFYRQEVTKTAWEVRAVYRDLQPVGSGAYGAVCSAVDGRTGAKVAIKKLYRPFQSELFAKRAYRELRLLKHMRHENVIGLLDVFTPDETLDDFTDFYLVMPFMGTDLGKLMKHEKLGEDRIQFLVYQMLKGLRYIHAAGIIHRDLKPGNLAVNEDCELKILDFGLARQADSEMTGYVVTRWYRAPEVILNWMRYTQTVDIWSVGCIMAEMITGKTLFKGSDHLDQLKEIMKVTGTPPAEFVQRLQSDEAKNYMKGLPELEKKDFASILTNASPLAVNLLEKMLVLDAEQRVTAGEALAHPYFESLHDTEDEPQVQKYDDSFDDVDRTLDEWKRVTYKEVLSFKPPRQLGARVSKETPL

[6] = molecular target: Proto-oncogene tyrosine-protein kinase ROS (Homo sapiens) (UniProt P08922); experiment: Inhibition of recombinant human GST-tagged ROS1 cytoplasmic domain (1883 to 2347 residues) expressed in baculovirus expression system at 500 nM by Z-LYTE assay relative to control
[7] = molecular target: PI3K p110 beta/p85 alpha (Homo sapiens) (UniProt P27986+P42338); experiment: Inhibition of PI3K p110beta/p85alpha (unknown origin) at 500 nM by Z-LYTE assay relative to control; format: protein-complex assay
[8] = molecular target: Platelet-derived growth factor receptor beta (Homo sapiens) (UniProt P09619); experiment: Inhibition of recombinant human His-tagged PDGFRbeta cytoplasmic domain expressed in baculovirus expression system at 500 nM by Z-LYTE assay relative to control
[9] = molecular target: Macrophage colony-stimulating factor 1 receptor (Homo sapiens) (UniProt P07333); experiment: Inhibition of recombinant human His-tagged CSF1R (538 to 910 residues) expressed in baculovirus expression system at 500 nM by Z-LYTE assay relative to control
[10] = molecular target: Tyrosine-protein kinase Lyn (Homo sapiens) (UniProt P07948); experiment: Inhibition of recombinant human full-length N-terminal His-tagged LYN-B expressed in baculovirus expression system at 500 nM by Z-LYTE assay relative to control
[11] = molecular target: Platelet-derived growth factor receptor alpha (Homo sapiens) (UniProt P16234); experiment: Inhibition of recombinant human GST-tagged PDGFRalpha cytoplasmic domain (550 to 1089 residues) expressed in baculovirus expression system at 500 nM by Z-LYTE assay relative to control
[12] = molecular target: Serine/threonine-protein kinase pim-2 (Homo sapiens) (UniProt Q9P1W9); experiment: Inhibition of recombinant full length human GST-tagged PIM2 expressed in baculovirus expression system at 500 nM by Z-LYTE assay relative to control
[13] = molecular target: Mitogen-activated protein kinase 11 (Homo sapiens) (UniProt Q15759); experiment: Inhibition of recombinant human full length His-tagged p38-beta expressed in baculovirus expression system at 500 nM by Z-LYTE assay relative to control
[14] = molecular target: Receptor tyrosine-protein kinase erbB-2 (Homo sapiens) (UniProt P04626); experiment: Inhibition of recombinant human His-tagged ERBB2 cytoplasmic domain expressed in baculovirus expression system at 500 nM by Z-LYTE assay relative to control
[15] = molecular target: Glycogen synthase kinase-3 beta (Homo sapiens) (UniProt P49841); experiment: Inhibition of recombinant full-length human His-tagged GSK3beta expressed in baculovirus expression system at 500 nM by Z-LYTE assay relative to control
[16] = molecular target: Protein kinase C alpha type (Homo sapiens) (UniProt P17252); experiment: Inhibition of recombinant human full length untagged PKCalpha expressed in baculovirus expression system at 500 nM by Z-LYTE assay relative to control
[17] = molecular target: Serine/threonine-protein kinase mTOR (Homo sapiens) (UniProt P42345); experiment: Inhibition of recombinant human GST-tagged mTOR cytoplasmic domain (1360 to 2549 residues) expressed in baculovirus expression system at 500 nM by Z-LYTE assay relative to control
[18] = molecular target: Mitogen-activated protein kinase 14 (Homo sapiens) (UniProt Q16539); experiment: Inhibition of recombinant human full length His-tagged p38-alpha expressed in baculovirus expression system at 500 nM by Z-LYTE assay relative to control
[19] = molecular target: T2, Dual specificity mitogen-activated protein kinase kinase 6 (Homo sapiens) (UniProt P52564); experiment: Inhibition of recombinant human full length His-tagged MKK6 expressed in baculovirus expression system at 500 nM by Z-LYTE assay relative to control
T2 sequence (whole entry): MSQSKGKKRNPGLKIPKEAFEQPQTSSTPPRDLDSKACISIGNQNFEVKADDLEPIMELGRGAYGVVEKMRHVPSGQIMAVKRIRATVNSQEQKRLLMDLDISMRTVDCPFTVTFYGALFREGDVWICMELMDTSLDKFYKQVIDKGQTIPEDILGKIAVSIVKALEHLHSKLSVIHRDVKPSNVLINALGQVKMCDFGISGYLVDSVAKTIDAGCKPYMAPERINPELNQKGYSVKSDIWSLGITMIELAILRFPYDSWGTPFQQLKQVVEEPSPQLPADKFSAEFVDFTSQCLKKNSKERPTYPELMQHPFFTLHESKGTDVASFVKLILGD

[20] = molecular target: Tyrosine-protein kinase Lck (Homo sapiens) (UniProt P06239); experiment: Inhibition of recombinant full-length human His-tagged LCK expressed in baculovirus expression system at 500 nM by Z-LYTE assay relative to control
[21] = molecular target: Protein kinase C beta type (Homo sapiens) (UniProt P05771); experiment: Inhibition of recombinant full length human GST-tagged PKCbeta-1 expressed in insect cells at 500 nM by Z-LYTE assay relative to control
[22] = molecular target: Epidermal growth factor receptor (Homo sapiens) (UniProt P00533); experiment: Inhibition of recombinant human GST-tagged wild-type EGFR cytoplasmic domain (668 to 1210 residues) expressed in baculovirus expression system at 500 nM by Z-LYTE assay relative to control

Chain of PI3K p110 beta/p85 alpha (Homo sapiens) (P27986 2-724 limits assumed): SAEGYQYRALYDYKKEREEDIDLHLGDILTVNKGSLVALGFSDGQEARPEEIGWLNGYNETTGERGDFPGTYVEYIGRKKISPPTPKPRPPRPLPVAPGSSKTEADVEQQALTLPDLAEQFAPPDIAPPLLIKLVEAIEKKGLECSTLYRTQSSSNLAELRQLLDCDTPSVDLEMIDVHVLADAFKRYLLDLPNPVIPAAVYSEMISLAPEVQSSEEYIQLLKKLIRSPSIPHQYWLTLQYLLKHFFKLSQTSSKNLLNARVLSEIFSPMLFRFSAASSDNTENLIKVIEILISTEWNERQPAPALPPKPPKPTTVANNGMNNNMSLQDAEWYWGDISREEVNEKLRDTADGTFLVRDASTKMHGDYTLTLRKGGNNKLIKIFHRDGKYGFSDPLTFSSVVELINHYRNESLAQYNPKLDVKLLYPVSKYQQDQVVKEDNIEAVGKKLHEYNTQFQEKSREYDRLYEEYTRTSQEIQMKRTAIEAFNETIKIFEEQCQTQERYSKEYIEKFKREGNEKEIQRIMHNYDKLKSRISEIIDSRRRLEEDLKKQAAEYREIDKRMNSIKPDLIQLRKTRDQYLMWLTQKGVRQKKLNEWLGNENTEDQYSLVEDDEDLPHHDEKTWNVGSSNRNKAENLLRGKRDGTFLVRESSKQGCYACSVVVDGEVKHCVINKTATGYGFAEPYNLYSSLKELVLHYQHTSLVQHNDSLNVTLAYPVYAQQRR
Chain of PI3K p110 beta/p85 alpha (Homo sapiens) (P42338 whole entry partner, the tested form may be a part): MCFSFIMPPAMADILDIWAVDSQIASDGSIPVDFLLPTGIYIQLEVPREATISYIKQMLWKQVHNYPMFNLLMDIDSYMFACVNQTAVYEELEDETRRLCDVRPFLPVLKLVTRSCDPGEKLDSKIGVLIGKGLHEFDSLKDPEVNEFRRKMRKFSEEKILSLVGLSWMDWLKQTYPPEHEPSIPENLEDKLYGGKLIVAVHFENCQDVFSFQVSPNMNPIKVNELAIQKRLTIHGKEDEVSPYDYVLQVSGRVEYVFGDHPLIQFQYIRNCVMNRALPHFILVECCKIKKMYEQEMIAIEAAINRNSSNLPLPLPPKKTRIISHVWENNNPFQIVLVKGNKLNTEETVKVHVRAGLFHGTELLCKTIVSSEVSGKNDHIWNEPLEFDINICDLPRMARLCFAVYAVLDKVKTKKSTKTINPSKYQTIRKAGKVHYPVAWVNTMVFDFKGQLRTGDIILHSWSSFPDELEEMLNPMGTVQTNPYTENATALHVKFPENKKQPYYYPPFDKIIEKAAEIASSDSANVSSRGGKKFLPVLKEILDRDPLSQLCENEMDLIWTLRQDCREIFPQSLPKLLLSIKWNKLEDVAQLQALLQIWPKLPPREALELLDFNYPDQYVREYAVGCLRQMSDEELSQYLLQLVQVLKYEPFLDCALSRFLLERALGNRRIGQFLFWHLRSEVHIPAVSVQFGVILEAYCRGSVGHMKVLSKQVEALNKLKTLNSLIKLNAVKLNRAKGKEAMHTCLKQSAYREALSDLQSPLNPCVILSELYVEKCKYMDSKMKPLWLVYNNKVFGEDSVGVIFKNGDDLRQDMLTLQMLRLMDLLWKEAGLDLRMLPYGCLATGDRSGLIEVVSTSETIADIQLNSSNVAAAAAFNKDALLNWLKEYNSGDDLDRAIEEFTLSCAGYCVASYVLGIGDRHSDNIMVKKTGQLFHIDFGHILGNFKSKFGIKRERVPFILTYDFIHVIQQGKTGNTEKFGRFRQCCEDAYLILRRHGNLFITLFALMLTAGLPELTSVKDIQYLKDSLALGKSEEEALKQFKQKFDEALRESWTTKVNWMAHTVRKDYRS
Chain of Phosphatidylinositol 4,5-bisphosphate 3-kinase catalytic subunit gamma isoform (Homo sapiens) (P48736 whole entry, looked up, canonical isoform): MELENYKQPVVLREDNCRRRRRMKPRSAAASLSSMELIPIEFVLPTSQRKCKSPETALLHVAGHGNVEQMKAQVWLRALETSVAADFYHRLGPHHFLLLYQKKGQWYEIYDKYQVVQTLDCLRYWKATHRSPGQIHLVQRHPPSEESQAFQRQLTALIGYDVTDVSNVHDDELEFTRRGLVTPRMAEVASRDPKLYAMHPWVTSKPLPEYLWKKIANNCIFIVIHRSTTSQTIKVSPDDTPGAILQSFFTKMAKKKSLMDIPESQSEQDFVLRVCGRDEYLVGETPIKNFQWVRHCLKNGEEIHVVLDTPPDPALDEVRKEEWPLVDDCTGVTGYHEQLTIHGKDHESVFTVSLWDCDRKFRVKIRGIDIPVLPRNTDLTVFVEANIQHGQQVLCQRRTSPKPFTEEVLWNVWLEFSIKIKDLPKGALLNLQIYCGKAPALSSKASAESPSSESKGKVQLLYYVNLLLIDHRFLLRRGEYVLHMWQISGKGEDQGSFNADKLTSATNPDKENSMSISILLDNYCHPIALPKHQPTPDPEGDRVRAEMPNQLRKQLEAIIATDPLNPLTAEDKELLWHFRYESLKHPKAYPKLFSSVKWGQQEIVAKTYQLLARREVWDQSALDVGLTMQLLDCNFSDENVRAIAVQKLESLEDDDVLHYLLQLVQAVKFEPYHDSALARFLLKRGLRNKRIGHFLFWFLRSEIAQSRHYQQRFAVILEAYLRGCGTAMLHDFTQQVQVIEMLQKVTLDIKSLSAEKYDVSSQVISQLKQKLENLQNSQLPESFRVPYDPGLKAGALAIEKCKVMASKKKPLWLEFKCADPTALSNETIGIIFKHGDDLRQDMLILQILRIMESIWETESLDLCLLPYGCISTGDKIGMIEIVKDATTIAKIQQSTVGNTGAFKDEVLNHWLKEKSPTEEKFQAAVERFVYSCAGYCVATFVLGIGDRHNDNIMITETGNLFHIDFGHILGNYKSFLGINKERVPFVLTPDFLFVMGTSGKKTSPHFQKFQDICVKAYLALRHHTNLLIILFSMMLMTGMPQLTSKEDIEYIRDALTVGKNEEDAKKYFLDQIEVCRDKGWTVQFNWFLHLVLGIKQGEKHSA
Chain of Protein kinase C beta type (Homo sapiens) (P05771 2-671 limits assumed): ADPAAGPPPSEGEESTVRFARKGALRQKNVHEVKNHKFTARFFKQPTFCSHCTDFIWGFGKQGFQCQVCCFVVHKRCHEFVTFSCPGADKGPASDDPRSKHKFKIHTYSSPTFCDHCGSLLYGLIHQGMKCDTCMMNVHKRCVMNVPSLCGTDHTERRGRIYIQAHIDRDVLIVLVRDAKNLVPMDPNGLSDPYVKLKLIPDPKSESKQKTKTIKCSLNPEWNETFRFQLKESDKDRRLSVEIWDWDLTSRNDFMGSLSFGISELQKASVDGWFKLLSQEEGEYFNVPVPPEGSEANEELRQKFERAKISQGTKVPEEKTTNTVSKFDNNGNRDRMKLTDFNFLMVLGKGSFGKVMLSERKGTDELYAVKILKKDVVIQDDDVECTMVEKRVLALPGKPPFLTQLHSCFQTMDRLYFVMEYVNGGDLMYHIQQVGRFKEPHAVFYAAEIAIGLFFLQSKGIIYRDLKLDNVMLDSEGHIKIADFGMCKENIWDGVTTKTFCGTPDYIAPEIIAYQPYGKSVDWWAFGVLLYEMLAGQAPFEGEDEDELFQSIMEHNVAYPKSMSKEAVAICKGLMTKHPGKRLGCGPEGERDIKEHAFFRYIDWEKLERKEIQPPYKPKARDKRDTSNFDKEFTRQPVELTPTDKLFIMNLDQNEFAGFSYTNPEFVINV
Chain of Mitogen-activated protein kinase 11 (Homo sapiens) (Q15759 whole entry, the tested form may be a part): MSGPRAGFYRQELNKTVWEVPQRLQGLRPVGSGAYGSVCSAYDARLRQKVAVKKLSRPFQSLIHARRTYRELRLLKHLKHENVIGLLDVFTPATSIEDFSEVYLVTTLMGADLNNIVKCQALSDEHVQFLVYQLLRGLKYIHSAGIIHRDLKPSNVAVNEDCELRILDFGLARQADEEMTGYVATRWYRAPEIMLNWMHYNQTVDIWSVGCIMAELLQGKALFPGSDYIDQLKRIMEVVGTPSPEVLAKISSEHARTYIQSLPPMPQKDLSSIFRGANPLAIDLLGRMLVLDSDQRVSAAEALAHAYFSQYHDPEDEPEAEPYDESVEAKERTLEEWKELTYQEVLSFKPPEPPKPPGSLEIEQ
Chain of Serine/threonine-protein kinase pim-2 (Homo sapiens) (Q9P1W9 whole entry, looked up): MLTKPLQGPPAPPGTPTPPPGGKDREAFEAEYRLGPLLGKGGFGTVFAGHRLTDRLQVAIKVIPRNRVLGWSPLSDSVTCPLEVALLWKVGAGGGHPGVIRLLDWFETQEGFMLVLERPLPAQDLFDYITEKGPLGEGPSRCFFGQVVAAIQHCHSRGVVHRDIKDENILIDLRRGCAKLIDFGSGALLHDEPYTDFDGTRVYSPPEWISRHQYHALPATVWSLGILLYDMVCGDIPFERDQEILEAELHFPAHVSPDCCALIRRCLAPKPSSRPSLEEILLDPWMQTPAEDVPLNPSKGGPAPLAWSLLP

| inhibition [1] | inhibition [2] | inhibition [3] | inhibition [4] | inhibition [5] | inhibition [6] | inhibition [7] | inhibition [8] | inhibition [9] | inhibition [10] | inhibition [11] | inhibition [12] | inhibition [13] | inhibition [14] | inhibition [15] | inhibition [16] | inhibition [17] | inhibition [18] | inhibition [19] | inhibition [20] | Structure (SMILES) | other results |
| --- | --- | --- | --- | --- | --- | --- | --- | --- | --- | --- | --- | --- | --- | --- | --- | --- | --- | --- | --- | --- | --- |
| 4% | 84% | 43% | 5% | 12% | 71% | 4% | 7% | 96% | 70% | 12% | 10% | 6% | 48% | 10% | 6% | 12% | 17% | 3% | 36% | OCc1ccc(-c2cc3c(N[C@H](CO)c4ccccc4)ncnc3[nH]2)cc1 | inhibition [21]: -1% |
| 1% | 5% | 42% | 5% | 10% | 22% | 11% | 5% | 21% | 27% | 8% | 8% | 2% | 41% | 31% | 21% | 11% | 3% | 8% | 19% | CCC(=O)Nc1ccc(-c2c[nH]c3ncnc(N[C@H](C)c4ccccc4)c23)cc1 | inhibition [22]: 98%; inhibition [21]: 14% |
| 5% | 69% | 38% | 6% | 10% | 15% | 12% | 5% | 39% | 49% | 18% | 5% | 2% | 5% | 7% | 15% | 14% | 8% | 5% | 32% | CN(C)CCn1cc(-c2cccc(O)c2)c2c(N)ncnc21 | inhibition [22]: 4%; inhibition [21]: 8% |
| -2% | 8% | 16% | 5% | 0% | 23% | 1% | 1% | 31% | 7% | 0% | 3% | 4% | 30% | 6% | 0% | 7% | 8% | 11% | 3% | OC[C@@H](Nc1ncnc2sc(-c3ccc(O)cc3)cc12)c1ccccc1 | inhibition [22]: 99%; inhibition [21]: -9% |
